Tests used:
[1] = test system: anti-HCV antibodies (HCV-positive sera); experiment: ELISA detection of anti-HCV antibodies in HCV-positive sera with adsorbed peptides; type: binding, human
Procedure: The reactivity of these three peptides towards the sera of individuals infected with the hepatitis C virus, termed (HCV) positive, was evaluated in an ELISA test according to the procedure described below.
Detection of anti-HCV Antibodies by ELISA
The wells of a microtiter plate of "NUNC MAXISORB™" trademark are saturated with 100 μl of a solution containing the peptide or a mixture of peptides (10 μg/ml) for 2 hours at 37° C. The plate is then emptied, then washed with a wash buffer containing 0.05% TWEEN™ 20(polysorbate 20). The wells are saturated with 100 μl of wash buffer supplemented with 10% goat serum (v/v), then incubated for 30 minutes at 37° C., then washed again as above. The sera to be analyzed are diluted to the appropriate dilution with saturation buffer. The incubation of the sera is 1 hour at 37° C. The wells are again washed. The solution of conjugate (goat IgG to human IgG labelled with peroxidase) at a dilution of 1/1000 in the saturation buffer is then added and the incubation lasts for 90 minutes at 37° C. After washing, the solution of orthophenylenediamine substrate is added. After 10 minutes, the reaction is stopped with 50 μl of H2 SO4 and the optical density is read at 492 nm. It should be noted that all the tests were carried out in duplicate.
For that, the different peptides are adsorbed on the microplates at a concentration of 10 μg/ml and the sera are used at 1/100 dilution.
The values obtained, which are collated in Table 1 below, correspond to the optical density (OD) multiplied by 10^3, at 492 nm.
For each serum the experiment was carried out in duplicate. The **** are values outside the upper scale.
The different peptides are absorbed onto microplates at a concentration of 10 μg/ml and the sera are used at the dilution stated.
The values obtained, which are collated in Table 2 below, correspond to the optical density at 492 nm. All the experiments were carried out in duplicate.
Each serum was, in a first instance, tested at the dilution 1/100.
The values given correspond to the optical density read at 492 nm multiplied by the factor 10^3.

[2] = test system: anti-HCV antibodies binding onto peptide S42G; experiment: Inhibition test: inhibition of binding of anti-HCV antibodies onto peptide S42G by preincubation with peptides; parameters: species or system human; conditions: inhibitor 0.1 mg/ml
Procedure: To evaluate this hypothesis, inhibition tests, whose usefulness lies in the fact that they allow the formation of the antigen-antibody complex in liquid medium, were carried out, thus dispensing with possible artifacts linked to the adsorption of peptides onto a solid support.
The inhibition experiments were carried out by reaction, in liquid phase, of the HCV sera with the peptides followed by reaction of the remaining antibodies with the peptide adsorbed onto the microplates. The inhibitory peptides are incubated at a concentration of 0.1 mg/ml with sera of appropriate dilution. The rest of the manipulation is identical to that described for the ELISA test.
Peptide S18D (SEQ ID NO:11), or V22G (SEQ ID NO:12), or a mixture of both, is preincubated overnight in the presence of the serum to be tested. The antibodies can bind onto the corresponding sites.

## S18D: a peptide of 20 amino acids covering sequence 2 to 21 of the CORE protein (STNPKPQRKTKRNTNRRPQD)
[1]; Table 2, line 68, serum not named (below CTS), 1/100
  optical density at 492 nm: 2.500 OD
[1]; Table 2, line 69, serum not named (below CTS), 1/1000
  optical density at 492 nm: 2.500 OD
[1]; Table 2, line 70, serum not named (below CTS), 1/10000
  optical density at 492 nm: 0.347 OD
[1]; Table 2, line 75, serum B4, 1/1000
  optical density at 492 nm: 1.250 OD
[1]; Table 2, line 76, serum B4, 1/1000 (so in the source)
  optical density at 492 nm: 0.171 OD
[1]; Table 2, serum B1, 1/100
  optical density at 492 nm: 1.859 OD
[1]; Table 2, serum B2, 1/100
  optical density at 492 nm: 1.781 OD
[1]; Table 2, serum B3, 1/100
  optical density at 492 nm: 1.244 OD
[1]; Table 2, serum B4, 1/100
  optical density at 492 nm: 2.500 OD
[1]; Table 2, serum B5, 1/100
  optical density at 492 nm: 2.032 OD
[1]; Table 2, serum B6, 1/100
  optical density at 492 nm: 2.500 OD
[1]; Table 2, serum B7, 1/100
  optical density at 492 nm: 2.500 OD
[1]; Table 2, serum B8, 1/100
  optical density at 492 nm: 1.362 OD
[1]; Table 2, serum B9, 1/100
  optical density at 492 nm: 0.808 OD
[1]; Table 2, serum B10, 1/100
  optical density at 492 nm: 0.099 OD
[1]; Table 2, serum B11, 1/100
  optical density at 492 nm: 2.324 OD
[1]; Table 2, serum B12, 1/100
  optical density at 492 nm: 1.375 OD
[1]; Table 2, serum B13, 1/100
  optical density at 492 nm: 0.370 OD
[1]; Table 2, serum B14, 1/100
  optical density at 492 nm: 0.072 OD
[1]; Table 2, serum B15, 1/100
  optical density at 492 nm: 0.090 OD
[1]; Table 2, serum B16, 1/100
  optical density at 492 nm: 2.500 OD
[1]; Table 2, serum CTS, 1/100
  optical density at 492 nm: 2.500 OD
[1]; Table 2, serum CTS, 1/1000
  optical density at 492 nm: 2.500 OD
[1]; Table 2, serum CTS, 1/10000
  optical density at 492 nm: 0.295 OD
[1]; Table 2, serum P1, 1/100
  optical density at 492 nm: 0.012 OD
[1]; Table 2, serum P2, 1/100
  optical density at 492 nm: 0.020 OD
[1]; Table 2, serum P3, 1/100
  optical density at 492 nm: 0.162 OD
[1]; Table 2, serum P4, 1/100
  optical density at 492 nm: 0.982 OD
[1]; Table 2, serum P5, 1/100
  optical density at 492 nm: 2.500 OD
[1]; Table 2, serum P5, 1/1000
  optical density at 492 nm: 2.317 OD
[1]; Table 2, serum P5, 1/10000
  optical density at 492 nm: 0.399 OD
[1]; Table 2, serum P6, 1/100
  optical density at 492 nm: 0.007 OD
[1]; Table 2, serum P7, 1/100
  optical density at 492 nm: 2.500 OD
[1]; Table 2, serum P7, 1/1000
  optical density at 492 nm: 0.854 OD
[1]; Table 2, serum P7, 1/10000
  optical density at 492 nm: 0.165 OD
[1]; Table 2, serum P8, 1/100
  optical density at 492 nm: 2.500 OD
[1]; Table 2, serum P8, 1/1000
  optical density at 492 nm: 2.500 OD
[1]; Table 2, serum P8, 1/10000
  optical density at 492 nm: 0.681 OD
[1]; Table 2, serum P9, 1/100
  optical density at 492 nm: 0.019 OD
[1]; Table 2, serum P10, 1/100
  optical density at 492 nm: 0.028 OD
[1]; Table 2, serum P11, 1/100
  optical density at 492 nm: 0.383 OD
[1]; Table 2, serum P12, 1/100
  optical density at 492 nm: 2.500 OD
[1]; Table 2, serum P12, 1/1000
  optical density at 492 nm: 2.500 OD
[1]; Table 2, serum P12, 1/10000
  optical density at 492 nm: 0.454 OD
[1]; Table 2, serum P13, 1/100
  optical density at 492 nm: 0.012 OD
[1]; Table 2, serum P14, 1/100
  optical density at 492 nm: 0.907 OD
[1]; Table 2, serum P15, 1/100
  optical density at 492 nm: 2.500 OD
[1]; Table 2, serum P16, 1/100
  optical density at 492 nm: 0.225 OD
[1]; Table 2, serum P17, 1/100
  optical density at 492 nm: 0.297 OD
[1]; Table 2, serum P18, 1/100
  optical density at 492 nm: 2.500 OD
[1]; Table 2, serum P18, 1/1000
  optical density at 492 nm: 0.297 OD
[1]; Table 2, serum P18, 1/10000
  optical density at 492 nm: 0.095 OD
[1]; Table 2, serum P19, 1/100
  optical density at 492 nm: 0.011 OD
[1]; Table 2, serum P20, 1/100
  optical density at 492 nm: 1.433 OD
[1]; Table 2, serum P21, 1/100
  optical density at 492 nm: 0.111 OD
[1]; Table 2, serum P22, 1/100
  optical density at 492 nm: 2.500 OD
[1]; Table 2, serum P22, 1/1000
  optical density at 492 nm: 1.142 OD
[1]; Table 2, serum P22, 1/10000
  optical density at 492 nm: 0.146 OD
[1]; Table 2, serum P23, 1/100
  optical density at 492 nm: 0.015 OD
[1]; Table 2, serum P24, 1/100
  optical density at 492 nm: 0.015 OD
[1]; Table 2, serum P25, 1/100
  optical density at 492 nm: 2.500 OD
[1]; Table 2, serum P25, 1/1000
  optical density at 492 nm: 2.199 OD
[1]; Table 2, serum P25, 1/10000
  optical density at 492 nm: 0.329 OD
[1]; Table 2, serum P26, 1/100
  optical density at 492 nm: 2.500 OD
[1]; Table 2, serum P26, 1/1000
  optical density at 492 nm: 2.500 OD
[1]; Table 2, serum P26, 1/10000
  optical density at 492 nm: 0.957 OD
[1]; Table 2, serum P27, 1/100
  optical density at 492 nm: 1.425 OD
[1]; Table 2, serum P28, 1/100
  optical density at 492 nm: 0.115 OD
[1]; Table 2, serum P29, 1/100
  optical density at 492 nm: 0.000 OD
[1]; Table 2, serum P30, 1/100
  optical density at 492 nm: 0.483 OD
[1]; Table 2, serum P31, 1/100
  optical density at 492 nm: 2.500 OD
[1]; Table 2, serum P31, 1/1000
  optical density at 492 nm: 1.975 OD
[1]; Table 2, serum P31, 1/10000
  optical density at 492 nm: 0.183 OD
[1]; Table 2, serum P32, 1/100
  optical density at 492 nm: 1.046 OD
[1]; Table 2, serum P33, 1/100
  optical density at 492 nm: 1.307 OD
[1]; Table 2, serum P34, 1/100
  optical density at 492 nm: 2.500 OD
[1]; Table 2, serum P35, 1/100
  optical density at 492 nm: 2.500 OD
[1]; Table 2, serum P36, 1/100
  optical density at 492 nm: 0.115 OD
[1]; Table 2, serum P37, 1/100
  optical density at 492 nm: 2.500 OD
[1]; Table 2, serum P37, 1/1000
  optical density at 492 nm: 0.523 OD
[1]; Table 2, serum P37, 1/10000
  optical density at 492 nm: 0.102 OD
[1]; Table 2, serum P38, 1/100
  optical density at 492 nm: 2.500 OD
[1]; Table 2, serum P38, 1/1000
  optical density at 492 nm: 0.753 OD
[1]; Table 2, serum P38, 1/10000
  optical density at 492 nm: 0.099 OD
[1]; Table 2, serum P39, 1/100
  optical density at 492 nm: 2.500 OD
[1]; Table 2, serum P40, 1/100
  optical density at 492 nm: 2.500 OD
[1]; Table 2, serum P41, 1/100
  optical density at 492 nm: 1.579 OD
[1]; Table 2, serum P42, 1/100
  optical density at 492 nm: 0.000 OD
[1]; in words
  reactivity towards HCV-positive sera: react
[2]; serum B4, 1/10,000
  inhibition: 16.8%
[2]; serum P5, 1/10,000
  inhibition: 3.5%
[2]; serum P7, 1/10,000
  inhibition: 8.4%
[2]; serum P8, 1/10,000
  inhibition: 1.4%
[2]; serum P18, 1/10,000
  inhibition: 10.6%
[2]; serum P22, 1/10,000
  inhibition: 6.6%
[2]; serum P25, 1/10,000
  inhibition: 14.1%
[2]; serum P31, 1/10,000
  inhibition: 2.0%
[2]; serum P37, 1/10,000
  inhibition: 43.6%
[2]; serum P38, 1/10,000
  inhibition: 8.9%

— US6235284A, “Synthetic polypeptides belonging to the hepatitis C virus (HCV) and which can be used especially for detecting the latter” (Bio Merieux, priority 1992, dated 2001)
